Tests used:
[1] = target: T1, recombinant human protein tyrosine phosphatase 1B (Homo sapiens, UniProt P18031); assay: Protein tyrosine phosphatase 1B inhibitory action (malachite green, phosphorylated insulin receptor peptide substrate); assay type: biochemical; settings: recombinant human PTP1B, 60 min room temperature, absorbance at 650 nm
T1 construct: purchased UBI
T1 sequence (P18031 1-435): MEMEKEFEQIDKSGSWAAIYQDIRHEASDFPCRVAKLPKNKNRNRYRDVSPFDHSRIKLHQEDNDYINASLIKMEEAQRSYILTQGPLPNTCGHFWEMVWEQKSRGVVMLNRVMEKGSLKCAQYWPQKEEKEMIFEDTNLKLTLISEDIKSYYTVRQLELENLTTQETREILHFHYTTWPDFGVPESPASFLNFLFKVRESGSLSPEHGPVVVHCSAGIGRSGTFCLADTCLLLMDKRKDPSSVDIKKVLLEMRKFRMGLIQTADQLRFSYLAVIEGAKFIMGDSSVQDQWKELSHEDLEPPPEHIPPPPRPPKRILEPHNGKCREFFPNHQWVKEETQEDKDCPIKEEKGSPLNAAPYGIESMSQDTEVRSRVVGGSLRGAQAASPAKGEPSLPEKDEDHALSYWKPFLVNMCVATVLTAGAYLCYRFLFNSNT
Procedure: Preparation of Assay Buffer:
50 mM Tris-HCl buffer (pH 7.5), and 50 mM NaCl and 3 mM dithiothreitol (DTT) were prepared.
Respective 10 mM DMSO solutions of 0.1, 0.3, 1, 3 and 10 μM test compounds were diluted with the above-mentioned assay buffer so that the final dimethyl sulfoxide (DMSO) concentration would be not more than 1%. As a control, an assay buffer was used.
Preparation of Substrate:
A synthetic peptide consisting of 12 amino acids corresponding to 1142nd–1153rd of insulin receptor sequence, wherein three tyrosines therein had been phosphorylated, was diluted with the above-mentioned assay buffer to 80 μM.
A recombinant human protein tyrosine phosphatase 1B (manufactured by UBI) was diluted with the above-mentioned assay buffer (1.2 ng/25 μl).
A sample (10 μl) and a substrate (25 μl) prepared as mentioned above were successively added to a 96 well plate, and an enzyme (25 μl) prepared as mentioned above was added and mixed. After incubation at room temperature for 60 min., malachite green (120 μl, Biomol), which is a phosphorus color fixing agent, was added, and the mixture was further incubated at room temperature for 20 min. to allow color development. The absorbance at 650 nm was measured on a plate reader, and the protein tyrosine phosphatase 1B inhibitory action of the test compound was evaluated.

[2] = tested on: male ob/ob mice; assay: Hypoglycemic action in ob/ob mice, oral administration; assay type: in vivo; settings: Mus musculus, fasting, 3 hr after administration, relative to control group, read-out: Decrease in blood glucose level (%) 3 hr; for inhibition in vivo at 1 mg/kg: dose 1 mg/kg oral; for inhibition in vivo at 3 mg/kg: dose 3 mg/kg oral; for inhibition in vivo at 0.3 mg/kg: dose 0.3 mg/kg oral
Procedure: A 0.5% methyl cellulose suspension of the test compound was orally administered to male ob/ob mice (6 to 9 weeks old) grouped based on blood glucose level. A 0.5% methyl cellulose solution alone was administered to a control group.
The blood was drawn from the orbital vein with anesthesia at 3 hours after the administration. The blood was drawn under fasting by removing the feed immediately before test compound administration. The blood thus drawn was separated by centrifugation and the blood glucose level was measured from the obtained plasma according to the hexokinase method (glucose measure kit). For evaluation, decrease in the blood glucose level of the test compound administration group relative to the control group was shown in percentage.

CN(c1ccc(C(=O)O)cc1)c1nc(-c2ccc(NCc3ccc(C4CCCCC4)cc3)cc2)cs1 [Example 3, 4-(N-(4-(4-(4-cyclohexylbenzylamino)phenyl)-2-thiazolyl)-N-methylamino)benzoic acid]
IC50 [1]: 0.5 µM | inhibition in vivo at 1 mg/kg [2]: 27% | inhibition in vivo at 3 mg/kg [2]: 35%

CN(Cc1ccc(C(=O)O)cc1)c1nc(-c2ccc(OCc3ccc(C4CCCCC4)cc3)cc2)cs1 [Example 2, potassium 4-(N-(4-(4-(4-cyclohexylbenzyloxy)phenyl)-2-thiazolyl)-N-methylaminomethyl)benzoate]
IC50 [1]: 0.22 µM | inhibition in vivo at 1 mg/kg [2]: 37% | inhibition in vivo at 3 mg/kg [2]: 47%

CN(Cc1ccc([C@H]2CC[C@H](O)CC2)cc1)c1ccc(-c2csc(N(C)Cc3ccc(C(=O)O)cc3)n2)cc1 [Example 196, trans-4-((N-(4-(4-(N-(4-(4-hydroxycyclohexyl)benzyl)-N-methylamino)phenyl)-2-thiazolyl)-N-methylamino)methyl)benzoic acid]
IC50 [1]: 0.83 µM | inhibition in vivo at 3 mg/kg [2]: -8% | melting point: 194 to 196 °C

CN(Cc1ccc(C2CCC(Cl)(Cl)CC2)cc1)c1ccc(-c2csc(N(C)Cc3ccc(C(=O)O)cc3)n2)cc1 [Example 208, 4-((N-(4-(4-(N-(4-(4,4-dichlorocyclohexyl)benzyl)-N-methylamino)phenyl)-2-thiazolyl)-N-methylamino)methyl)benzoic acid]
IC50 [1]: 0.11 µM | inhibition in vivo at 3 mg/kg [2]: 21% | melting point: 210 to 213 °C

CC1CCC(c2ccc(CN(C)c3ccc(-c4csc(N(C)Cc5ccc(C(=O)O)cc5)n4)cc3)cc2)CC1 (stereo not drawn) [Example 218, 4-((N-methyl-N-(4-(4-(N-methyl-N-(4-(4-methylcyclohexyl)benzyl)amino)phenyl)-2-thiazolyl)amino)methyl)benzoic acid]
IC50 [1]: 0.15 µM | inhibition in vivo at 3 mg/kg [2]: 27% | melting point: 185 to 191 °C

CN(Cc1ccc(C(=O)O)cc1)c1nc(-c2ccc(NCc3ccc(C4CCCCC4)cc3)cc2)cs1 [Example 115, 4-((N-(4-(4-(4-cyclohexylbenzylamino)phenyl)-2-thiazolyl)-N-methylamino)methyl)benzoic acid]
IC50 [1]: 0.48 µM | inhibition in vivo at 3 mg/kg [2]: 34% | melting point: 184 °C (dec.)

CN(Cc1ccc(C2CCC(F)(F)CC2)cc1)c1ccc(-c2csc(N(C)Cc3ccc(C(=O)O)cc3)n2)cc1 [Example 209, 4-((N-(4-(4-(N-(4-(4,4-difluorocyclohexyl)benzyl)-N-methylamino)phenyl)-2-thiazolyl)-N-methylamino)methyl)benzoic acid]
IC50 [1]: 0.49 µM | inhibition in vivo at 3 mg/kg [2]: 20% | melting point: 190 to 193 °C

O=C(O)c1ccc(CN(CC2CCCCC2)c2nc(-c3nc4ccc(OCc5ccc(Cl)c(Cl)c5)cc4o3)cs2)cc1 [Example 217, 4-((N-cyclohexylmethyl-N-(4-(6-(3,4-dichlorobenzyloxy)-2-benzooxazolyl)-2-thiazolyl)amino)methyl)benzoic acid]
IC50 [1]: 0.26 µM | inhibition in vivo at 3 mg/kg [2]: 20% | melting point: 188 to 190 °C

CN(Cc1ccc(C2CCC(C)(C)CC2)cc1)c1ccc(-c2csc(N(C)Cc3ccc(C(=O)O)cc3)n2)cc1 [Example 215, 4-((N-(4-(4-(N-(4-(4,4-dimethylcyclohexyl)benzyl)-N-methylamino)phenyl)-2-thiazolyl)-N-methylamino)methyl)benzoic acid]
IC50 [1]: 0.11 µM | inhibition in vivo at 0.3 mg/kg [2]: -9% | inhibition in vivo at 1 mg/kg [2]: 32% | inhibition in vivo at 3 mg/kg [2]: 39% | melting point: 155 to 158 °C

CN(Cc1ccc(C2CCCCC2)cc1)c1ccc(-c2csc(N(C)Cc3ccc(C(=O)O)cc3)n2)cc1 [Example 1, 4-(N-(4-(4-(N-(4-cyclohexylbenzyl)-N-methylamino)phenyl)-2-thiazolyl)-N-methylaminomethyl)benzoic acid]
IC50 [1]: 0.32 µM | inhibition in vivo at 0.3 mg/kg [2]: 35% | inhibition in vivo at 1 mg/kg [2]: 35% | inhibition in vivo at 3 mg/kg [2]: 35%

Reference: US7163952B2, “Azole compound and medicinal use thereof” (Japan Tobacco Inc., priority 2001, dated 2007)
